# Values quoted from earlier work in publication PMC9851200, “Multiparameter phenotypic screening for endogenous TFEB and TFE3 translocation identifies novel chemical series modulating lysosome function” (Autophagy, 2022).
# Tests used:
# Parameters in all cases: method as in original PKIS2 published data
# [1] = target: T1, kinases (KINOMEscan panel) (Homo sapiens, UniProt O15530); settings: Published KINOMEscan; ref original PKIS2 published data; cited from earlier work
# T1 sequence (O15530 1-556): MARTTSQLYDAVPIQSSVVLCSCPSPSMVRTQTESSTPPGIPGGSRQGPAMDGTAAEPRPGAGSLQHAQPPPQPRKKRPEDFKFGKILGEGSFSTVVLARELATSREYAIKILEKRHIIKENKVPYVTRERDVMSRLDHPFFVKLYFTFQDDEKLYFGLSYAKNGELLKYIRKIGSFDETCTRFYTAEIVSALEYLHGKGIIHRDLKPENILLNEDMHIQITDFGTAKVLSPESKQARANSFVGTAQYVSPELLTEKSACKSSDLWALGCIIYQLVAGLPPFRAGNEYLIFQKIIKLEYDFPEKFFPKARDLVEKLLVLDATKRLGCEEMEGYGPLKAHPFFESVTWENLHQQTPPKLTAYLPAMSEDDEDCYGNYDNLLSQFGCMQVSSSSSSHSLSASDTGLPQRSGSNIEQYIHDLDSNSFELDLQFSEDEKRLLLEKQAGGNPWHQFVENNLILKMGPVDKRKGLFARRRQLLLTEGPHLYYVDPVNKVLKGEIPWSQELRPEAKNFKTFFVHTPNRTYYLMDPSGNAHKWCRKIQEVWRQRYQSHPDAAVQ
# [2] = target: kinases (KINOMEscan panel) (Homo sapiens, UniProt P22607); settings: FGFR3; Published KINOMEscan; ref original PKIS2 published data; cited from earlier work
# [3] = target: T2, kinases (KINOMEscan panel) (Homo sapiens, UniProt P30530); settings: AXL; Published KINOMEscan; ref original PKIS2 published data; cited from earlier work
# T2 sequence (P30530 26-894): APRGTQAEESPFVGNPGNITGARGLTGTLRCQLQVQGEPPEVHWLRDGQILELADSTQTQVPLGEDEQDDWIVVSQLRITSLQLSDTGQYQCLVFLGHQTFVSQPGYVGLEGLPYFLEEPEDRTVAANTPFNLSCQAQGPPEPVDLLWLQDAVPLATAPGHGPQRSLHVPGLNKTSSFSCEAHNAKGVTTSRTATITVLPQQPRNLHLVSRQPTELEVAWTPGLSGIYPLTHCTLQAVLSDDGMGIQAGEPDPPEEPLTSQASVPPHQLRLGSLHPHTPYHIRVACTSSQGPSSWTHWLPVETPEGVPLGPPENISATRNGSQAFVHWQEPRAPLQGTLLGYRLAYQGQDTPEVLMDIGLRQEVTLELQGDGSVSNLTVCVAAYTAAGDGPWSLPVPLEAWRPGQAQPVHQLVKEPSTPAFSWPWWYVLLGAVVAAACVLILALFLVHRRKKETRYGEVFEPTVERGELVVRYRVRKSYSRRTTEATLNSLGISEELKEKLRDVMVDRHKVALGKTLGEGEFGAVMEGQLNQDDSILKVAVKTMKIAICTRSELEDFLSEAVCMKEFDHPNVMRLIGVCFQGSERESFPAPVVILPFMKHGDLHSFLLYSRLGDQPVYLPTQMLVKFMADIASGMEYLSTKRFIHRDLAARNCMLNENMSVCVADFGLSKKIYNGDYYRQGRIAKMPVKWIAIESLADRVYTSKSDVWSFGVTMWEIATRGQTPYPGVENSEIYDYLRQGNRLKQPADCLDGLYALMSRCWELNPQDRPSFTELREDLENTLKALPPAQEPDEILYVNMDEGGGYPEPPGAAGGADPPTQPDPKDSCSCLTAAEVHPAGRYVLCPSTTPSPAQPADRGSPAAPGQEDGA
# [4] = target: T3, kinases (KINOMEscan panel) (Homo sapiens, UniProt P51817); settings: kinase PRKX; Published KINOMEscan; ref original PKIS2 published data; cited from earlier work
# T3 sequence (P51817 1-358): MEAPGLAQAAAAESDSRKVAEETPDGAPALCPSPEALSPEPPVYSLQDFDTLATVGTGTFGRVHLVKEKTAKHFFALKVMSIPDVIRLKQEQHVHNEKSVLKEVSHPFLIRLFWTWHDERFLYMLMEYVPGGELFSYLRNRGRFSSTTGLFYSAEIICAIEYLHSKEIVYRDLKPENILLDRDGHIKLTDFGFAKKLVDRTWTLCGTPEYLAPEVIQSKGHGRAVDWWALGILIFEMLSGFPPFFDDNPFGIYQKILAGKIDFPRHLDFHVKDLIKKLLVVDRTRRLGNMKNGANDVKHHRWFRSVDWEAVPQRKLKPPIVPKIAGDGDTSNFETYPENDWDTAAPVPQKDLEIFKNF
# [5] = target: T4, kinases (KINOMEscan panel) (Homo sapiens, UniProt P51955); settings: kinase NEK2; Published KINOMEscan; ref original PKIS2 published data; cited from earlier work
# T4 sequence (P51955 1-445): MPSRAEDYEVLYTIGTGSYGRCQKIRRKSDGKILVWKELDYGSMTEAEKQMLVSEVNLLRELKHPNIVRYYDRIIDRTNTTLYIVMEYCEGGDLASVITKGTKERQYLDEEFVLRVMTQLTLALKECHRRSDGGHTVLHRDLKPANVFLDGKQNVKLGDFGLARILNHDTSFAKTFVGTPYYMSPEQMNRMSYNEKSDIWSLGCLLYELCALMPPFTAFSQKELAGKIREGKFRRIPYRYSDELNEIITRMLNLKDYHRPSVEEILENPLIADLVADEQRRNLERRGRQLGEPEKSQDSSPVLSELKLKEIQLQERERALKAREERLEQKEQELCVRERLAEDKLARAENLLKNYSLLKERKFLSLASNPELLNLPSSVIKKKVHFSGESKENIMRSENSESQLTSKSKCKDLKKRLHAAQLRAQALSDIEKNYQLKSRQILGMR
# [6] = target: kinases (KINOMEscan panel) (Homo sapiens, UniProt Q8IU85); settings: kinase CAMK1D; Published KINOMEscan; ref original PKIS2 published data; cited from earlier work
# [7] = target: kinases (KINOMEscan panel) (Homo sapiens, UniProt Q96SB4); settings: kinase SRPK1; Published KINOMEscan; ref original PKIS2 published data; cited from earlier work
# [8] = target: kinases (KINOMEscan panel) (Homo sapiens, UniProt Q9UBF8); settings: kinase PI4KB; Published KINOMEscan; ref original PKIS2 published data; cited from earlier work
# kinases (KINOMEscan panel) (Homo sapiens, UniProt Q9UBF8), sequence (Q9UBF8 whole entry): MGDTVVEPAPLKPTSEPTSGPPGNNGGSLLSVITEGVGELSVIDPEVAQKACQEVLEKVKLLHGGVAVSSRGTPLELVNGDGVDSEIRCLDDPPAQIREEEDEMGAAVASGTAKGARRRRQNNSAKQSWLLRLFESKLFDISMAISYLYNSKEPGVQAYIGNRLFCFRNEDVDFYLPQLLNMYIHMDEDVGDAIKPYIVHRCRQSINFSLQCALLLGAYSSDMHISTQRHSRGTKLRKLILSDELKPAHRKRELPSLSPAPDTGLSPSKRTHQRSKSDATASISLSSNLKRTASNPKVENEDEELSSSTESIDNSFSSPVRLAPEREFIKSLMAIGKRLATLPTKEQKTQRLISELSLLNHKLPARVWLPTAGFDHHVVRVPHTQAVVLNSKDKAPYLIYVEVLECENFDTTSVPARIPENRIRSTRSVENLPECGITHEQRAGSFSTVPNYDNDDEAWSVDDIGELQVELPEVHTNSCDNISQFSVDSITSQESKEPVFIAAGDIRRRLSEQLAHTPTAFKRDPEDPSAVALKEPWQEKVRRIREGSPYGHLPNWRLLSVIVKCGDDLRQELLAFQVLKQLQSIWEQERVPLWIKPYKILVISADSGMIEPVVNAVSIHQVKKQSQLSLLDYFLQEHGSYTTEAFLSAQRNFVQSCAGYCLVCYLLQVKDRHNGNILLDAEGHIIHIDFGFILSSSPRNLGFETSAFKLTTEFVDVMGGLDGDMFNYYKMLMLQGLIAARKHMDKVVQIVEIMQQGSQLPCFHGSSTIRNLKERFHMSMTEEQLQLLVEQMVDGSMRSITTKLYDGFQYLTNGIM
# kinases (KINOMEscan panel) (Homo sapiens, UniProt P22607), sequence (P22607 23-806): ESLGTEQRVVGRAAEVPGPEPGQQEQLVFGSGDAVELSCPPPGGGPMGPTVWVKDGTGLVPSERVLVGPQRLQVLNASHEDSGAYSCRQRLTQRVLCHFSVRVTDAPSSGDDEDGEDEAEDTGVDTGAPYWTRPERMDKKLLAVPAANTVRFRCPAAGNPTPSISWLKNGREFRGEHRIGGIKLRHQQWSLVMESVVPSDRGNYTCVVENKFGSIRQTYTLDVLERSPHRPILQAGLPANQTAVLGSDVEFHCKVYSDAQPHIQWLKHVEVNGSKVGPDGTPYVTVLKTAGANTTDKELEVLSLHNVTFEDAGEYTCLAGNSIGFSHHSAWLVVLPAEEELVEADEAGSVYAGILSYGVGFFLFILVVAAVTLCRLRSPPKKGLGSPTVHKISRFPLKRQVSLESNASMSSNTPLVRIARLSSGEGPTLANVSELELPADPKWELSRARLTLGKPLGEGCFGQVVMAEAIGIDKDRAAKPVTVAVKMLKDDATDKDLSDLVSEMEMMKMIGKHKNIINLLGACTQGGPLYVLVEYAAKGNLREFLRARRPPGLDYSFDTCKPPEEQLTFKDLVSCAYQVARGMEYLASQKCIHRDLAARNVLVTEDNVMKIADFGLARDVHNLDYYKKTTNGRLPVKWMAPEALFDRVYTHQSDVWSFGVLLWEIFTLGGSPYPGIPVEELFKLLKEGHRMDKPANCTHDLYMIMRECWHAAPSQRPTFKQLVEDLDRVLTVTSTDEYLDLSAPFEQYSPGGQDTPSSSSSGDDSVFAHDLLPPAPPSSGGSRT
# kinases (KINOMEscan panel) (Homo sapiens, UniProt Q8IU85), sequence (Q8IU85 whole entry): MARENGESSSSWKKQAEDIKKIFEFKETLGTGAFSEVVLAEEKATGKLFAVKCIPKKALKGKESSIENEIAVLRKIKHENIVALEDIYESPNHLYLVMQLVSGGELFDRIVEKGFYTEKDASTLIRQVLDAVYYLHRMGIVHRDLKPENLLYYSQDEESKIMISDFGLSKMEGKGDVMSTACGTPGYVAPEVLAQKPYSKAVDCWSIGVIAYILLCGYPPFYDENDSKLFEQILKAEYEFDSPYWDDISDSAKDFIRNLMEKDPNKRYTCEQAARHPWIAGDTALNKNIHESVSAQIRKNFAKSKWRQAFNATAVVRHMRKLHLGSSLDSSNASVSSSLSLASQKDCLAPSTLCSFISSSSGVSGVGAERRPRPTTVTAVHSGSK
# kinases (KINOMEscan panel) (Homo sapiens, UniProt Q96SB4), sequence (Q96SB4 whole entry): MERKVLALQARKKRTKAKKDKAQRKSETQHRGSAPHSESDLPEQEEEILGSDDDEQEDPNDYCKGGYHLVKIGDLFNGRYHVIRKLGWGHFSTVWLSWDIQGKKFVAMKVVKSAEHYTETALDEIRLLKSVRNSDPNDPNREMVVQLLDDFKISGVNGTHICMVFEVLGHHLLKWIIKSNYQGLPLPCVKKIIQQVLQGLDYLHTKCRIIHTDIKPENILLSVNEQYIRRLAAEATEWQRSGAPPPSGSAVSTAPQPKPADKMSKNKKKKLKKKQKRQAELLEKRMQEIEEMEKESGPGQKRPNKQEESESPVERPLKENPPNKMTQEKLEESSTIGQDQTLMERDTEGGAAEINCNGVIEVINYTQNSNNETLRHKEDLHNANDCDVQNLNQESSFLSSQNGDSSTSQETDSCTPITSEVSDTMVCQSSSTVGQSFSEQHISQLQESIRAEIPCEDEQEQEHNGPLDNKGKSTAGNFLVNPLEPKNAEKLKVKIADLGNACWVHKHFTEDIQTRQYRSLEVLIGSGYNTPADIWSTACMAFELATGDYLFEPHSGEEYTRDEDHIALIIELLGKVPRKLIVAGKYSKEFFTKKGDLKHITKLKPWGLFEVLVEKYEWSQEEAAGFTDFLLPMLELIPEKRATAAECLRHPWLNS
compound,measurement,setting,value
Cc1cccc(-c2nc(Nc3ccncc3)c3ccccc3n2)n1 [NK215],KINOMEscan PDPK1,[1],24
same,KINOMEscan FGFR3,[2],2
same,KINOMEscan AXL,[3],7
same,KINOMEscan PRKX,[4],0
same,KINOMEscan NEK2,[5],0
same,KINOMEscan CAMK1D,[6],3
same,KINOMEscan SRPK1,[7],0
same,KINOMEscan PI4KB,[8],0
